Tests used:
Format in all cases: functional
[1] = tested on: MCF7; assay: Cytotoxicity against Homo sapiens (human) MCF7 assessed as cell growth at 10^-4 M after 48 hr by Alamar Blue assay; conditions: MCF7, 48 h, read-out: Activity
[2] = tested on: SF-268; assay: Cytotoxicity against Homo sapiens (human) SF268 assessed as cell growth at 10^-4 M after 48 hr by Alamar Blue assay; conditions: SF-268, 48 h, read-out: Activity
[3] = tested on: NCI-H460; assay: Cytotoxicity against Homo sapiens (human) NCI-H460 assessed as cell growth at 10^-4 M after 48 hr by Alamar Blue assay; conditions: NCI-H460, 48 h, read-out: Activity

Compound: COc1ccc(C2=C3SC=c4ccccc4=C3ON=C2c2ccc(C)cc2)cc1
- growth at 100 µM [1]: 98%
- growth at 100 µM [2]: 103%
- growth at 100 µM [3]: 84%

Compound: Cc1ccc(C2=NOC3=c4ccccc4=CSC3=C2c2ccc([N+](=O)[O-])cc2)cc1
- growth at 100 µM [1]: 99%
- growth at 100 µM [2]: 111%
- growth at 100 µM [3]: 97%

Compound: Cc1ccc(C2=C3SC=c4ccccc4=C3ON=C2c2ccccc2)cc1
- growth at 100 µM [1]: 41%
- growth at 100 µM [2]: 69%
- growth at 100 µM [3]: 94%

Compound: COc1ccc(C2=NOC3=c4ccccc4=CSC3=C2c2ccc(OC)cc2)cc1
- growth at 100 µM [1]: 116%
- growth at 100 µM [2]: 105%
- growth at 100 µM [3]: 102%
